The nature of data set [1]: Lipophilicity, logK of the compound by RP-HPLC analysis. Type of data set: physicochemical.
Data set [2] concerns Mycobacterium tuberculosis. Kind of data set: Antimycobacterial activity against Mycobacterium tuberculosis H37Rv CNCTC My 331/88 incubated for 10 to 14 days by microplate alamar blue assay. The format is functional.
Data set [3] deals with Mycobacterium kansasii. Kind of data set: Antimycobacterial activity against Mycobacterium kansasii CNCTC My 235/80 incubated for 5 to 7 days by microplate alamar blue assay. Type of data set: functional.
Data set [4] in a line: Cytotoxicity against CRFK cells assessed as cell viability after 4 to 6 days by formazan-based MTS assay. The conditions noted are these: cat. More on the design: species or system Felis catus.
A short description of data set [5]: Cytotoxicity against HEL cells assessed as cell viability after 4 to 6 days by microscopic analysis. The format is cell-based. The conditions noted are these: human.
The nature of data set [6]: Cytotoxicity against human HeLa cells assessed as cell viability after 4 to 6 days by microscopic analysis. The format is cell-based.
Data set [7] can be described thus: Cytotoxicity against African green monkey Vero cells assessed as cell viability after 4 to 6 days by microscopic analysis. The format is cell-based. The note with it: chlorocebus sabaeus.
A short description of data set [8]: Cytotoxicity against MDCK cells assessed as cell viability after 4 to 6 days by formazan-based MTS assay. More on the design: species or system Canis lupus familiaris. The conditions noted are these: dog.
Data set [9] is described as follows: Cytotoxicity against MDCK cells assessed as cell viability after 4 to 6 days by microscopic analysis. The format is cell-based, Canis lupus familiaris. The conditions noted are these: dog.
Data set [10] concerns Influenza A virus. Kind of data set: Antiviral activity against Influenza A virus (A/Puerto Rico/8/(H1N1)) assessed as inhibition of virus-induced cytopathic effect after 3 to 6 days by formazan-based MTS assay. The format is functional, organism-based.
The test system of data set [11] is Mycobacterium avium. The experiment in a line: Antimycobacterial activity against Mycobacterium avium CNCTC My 80/72 after 5 days by microplate alamar blue assay. Type of data set: functional. The note with it: CNCTC My 80/72, 120 h.
Data set [12] relates to Mycobacterium avium. The experiment in a line: Antimycobacterial activity against Mycobacterium avium CNCTC My 152/73 after 5 days by microplate alamar blue assay. The format is functional. The note with it: CNCTC My 152/73, 120 h.
The test system of data set [13] is Escherichia coli. The experiment in a line: Antibacterial activity against Escherichia coli CCM 4517 after 24 to 48 hrs by broth microdilution method. Type of data set: functional.
Data set [14] deals with Pseudomonas aeruginosa. Kind of data set: Antibacterial activity against Pseudomonas aeruginosa CCM 1961 after 24 to 48 hrs by broth microdilution method. Type of data set: functional.
The test system of data set [15] is Klebsiella pneumoniae. Kind of data set: Antibacterial activity against Klebsiella pneumoniae D 11750/08 after 24 to 48 hrs by broth microdilution method. Type of data set: functional.
The test system of data set [16] is Klebsiella pneumoniae. Kind of data set: Antibacterial activity against ESBL positive Klebsiella pneumoniae J 14368/08 after 24 to 48 hrs by broth microdilution method. Type of data set: functional.
Data set [17] relates to Candida albicans. The experiment in a line: Antifungal activity against Candida albicans ATCC 44859 after 24 to 48 hrs by broth microdilution method. Type of data set: functional.
Data set [18] concerns Candida tropicalis. Kind of data set: Antifungal activity against Candida tropicalis 156 after 24 to 48 hrs by broth microdilution method. The format is functional.
The subject of data set [19] is Pichia kudriavzevii. Kind of data set: Antifungal activity against Candida krusei E28 after 24 to 48 hrs by broth microdilution method. The format is functional.
The subject of data set [20] is Nakaseomyces glabratus. Kind of data set: Antifungal activity against Candida glabrata 20/I after 24 to 48 hrs by broth microdilution method. Type of data set: functional.
Data set [21] has as its system Trichosporon asahii. Kind of data set: Antifungal activity against Trichosporon asahii 1188 after 24 to 48 hrs by broth microdilution method. The format is functional.
Data set [22] has as its system Aspergillus fumigatus. Kind of data set: Antifungal activity against Aspergillus fumigatus 231 after 24 to 48 hrs by broth microdilution method. The format is functional.
For data set [23], the system named is Lichtheimia corymbifera. Kind of data set: Antifungal activity against Lichtheimia corymbifera 272 after 24 to 48 hrs by broth microdilution method. The format is functional.
Data set [24] has as its system Trichophyton mentagrophytes. The experiment in a line: Antifungal activity against Trichophyton mentagrophytes 445 after 72 to 120 hrs by broth microdilution method. Type of data set: functional.
The subject of data set [25] is Influenza A virus. The experiment in a line: Antiviral activity against Influenza A virus (A/Puerto Rico/8/(H1N1)) assessed as inhibition of virus-induced cytopathic effect after 3 to 6 days by microscopic analysis. The format is functional, organism-based.

≈ marks a conversion by molar mass, not a printed value.

Turning to `CCCCCCCCNc1nccnc1C(=O)NCc1ccccc1`, the “log K” value in data set [1] is listed as 2.054. The MIC in data set [2] was more than 100 µg/mL; in data set [3], more than 100 µg/mL; in data set [11], more than 100 µg/mL; in data set [12], more than 100 µg/mL; in data set [17], more than 500 µM; in [18], more than 500 µM. In addition, the MIC in data set [19], in data set [20], in data set [21], in data set [22], in data set [23] and in [24] was more than 500 µM in each case. In addition, the CC50 in data set [4] and in data set [8] was more than 100 µM each time. Besides, the MCC was more than 100 µM in data set [5], more than 100 µM in data set [6], more than 100 µM in data set [7] and 100 µM in [9]. Besides, the EC50 in [10] and in data set [25] was more than 100 µM each time. Also, the MIC95 in data set [13], in data set [14], in data set [15] and in data set [16] was more than 500 µM in each case.

Turning to `NC(=O)c1cnccn1` [PYRAZINAMIDE], in [1], the “log K” value is listed as -0.687. In addition, the MIC was 102 µM in [2] and more than 100 µg/mL in [3].

On to `CCCCCCCNc1nccnc1C(=O)NCc1ccccc1`, for which the “log K” value in [1] was determined as 1.809. For the same compound, the MIC was more than 100 µg/mL in [2]; more than 100 µg/mL in data set [3]; more than 100 µg/mL in data set [11]; more than 100 µg/mL in data set [12]; more than 500 µM in data set [17]; more than 500 µM in data set [18]. The MIC in [19], in data set [20], in data set [21], in data set [22], in data set [23] and in data set [24] was more than 500 µM in each case. In addition, the CC50 in data set [4] and in data set [8] was more than 100 µM each time. Further, the MCC in data set [5] was 100 µM; in data set [6], more than 100 µM; in [7], more than 100 µM; in data set [9], 100 µM. The concentration giving a half-maximal response (EC50) in data set [10] and in data set [25] was more than 100 µM throughout. The MIC95 in data set [13], in data set [14], in data set [15] and in data set [16] was more than 500 µM throughout.

In the case of `CCCCNc1cnc(C(=O)NCc2ccccc2)cn1`, the “log K” value in data set [1] is reported as 0.424. For the same compound, the MIC in data set [2] is 88 µM; in data set [3] it was more than 100 µg/mL; in [11], more than 100 µg/mL; in [12] it was more than 100 µg/mL; in [17], more than 500 µM; in data set [18] it was more than 500 µM. Further, the minimal inhibitory concentration (MIC) in data set [19], in data set [20], in data set [21], in data set [22], in data set [23] and in data set [24] was more than 500 µM throughout. In addition, the CC50 in data set [4] is more than 100 µM; in data set [8], 57 µM. Further, the MCC in data set [5] was more than 100 µM; in data set [6], more than 100 µM; in data set [7], more than 100 µM; in data set [9] it was 100 µM. Also, the EC50 in data set [10] and in data set [25] was more than 100 µM throughout. The MIC95 in data set [13], in data set [14], in [15] and in data set [16] was more than 500 µM in each case.

As for `O=C(NCc1ccccc1)c1nccnc1Cl`, the MIC in data set [2] is 50 µM; in data set [3] it was 100 µg/mL (≈ 404 µM); in data set [11], more than 100 µg/mL; in [12], more than 100 µg/mL.

As for `CCCCCNc1nccnc1C(=O)NCc1ccccc1`, in data set [1], the “log K” value was found to be 1.321. Also, the minimum inhibitory concentration (MIC) was more than 100 µg/mL in data set [2]; more than 100 µg/mL in data set [3]; more than 100 µg/mL in [11]; more than 100 µg/mL in data set [12]; more than 500 µM in data set [17]; more than 500 µM in data set [18]. The MIC in [19], in data set [20], in [21], in data set [22], in data set [23] and in [24] was more than 500 µM in each case. For the same compound, the CC50 in [4] and in data set [8] was more than 100 µM in each case. Moreover, the MCC in [5] is not below 100 µM; in data set [6], more than 100 µM; in [7], more than 100 µM; in [9], not below 20 µM. Also, the concentration for a half-maximal effect (EC50) in data set [10] and in data set [25] was more than 100 µM throughout. For the same compound, the MIC95 in data set [13], in data set [14], in data set [15] and in [16] was more than 500 µM in each case.

In the case of `CCCCCNc1cnc(C(=O)NCc2ccccc2)cn1`, the “log K” value in [1] worked out at 0.638. Also, the minimal inhibitory concentration (MIC) in data set [2] was 21 µM; in data set [3] it was more than 100 µg/mL; in data set [11], more than 100 µg/mL; in data set [12], more than 100 µg/mL; in data set [17] it was more than 500 µM; in data set [18], more than 500 µM. The MIC in [19], in data set [20], in data set [21], in data set [22], in [23] and in [24] was more than 500 µM each time. Besides, the CC50 in data set [4] and in [8] was more than 100 µM in each case. Moreover, the MCC in data set [5], in [6], in data set [7] and in data set [9] was more than 100 µM in each case. Further, the EC50 turned out to be 3.3 µM in data set [10] and 37 µM in [25]. For the same compound, the MIC95 in [13], in data set [14], in [15] and in data set [16] was more than 500 µM in each case.

With `CCCCCCNc1nccnc1C(=O)NCc1ccccc1`, the “log K” value in [1] is recorded as 1.564. For the same compound, the MIC was more than 100 µg/mL in data set [2]; more than 100 µg/mL in data set [3]; more than 100 µg/mL in [11]; more than 100 µg/mL in [12]; more than 500 µM in data set [17]; more than 500 µM in data set [18]. For the same compound, the MIC in [19], in [20], in data set [21], in data set [22], in [23] and in data set [24] was more than 500 µM each time. Moreover, the CC50 in [4] and in [8] was more than 100 µM throughout. Also, the MCC in data set [5] is 100 µM; in [6], more than 100 µM; in [7] it was more than 100 µM; in data set [9], 100 µM. For the same compound, the EC50 in [10] and in data set [25] was more than 100 µM each time. The MIC95 in [13], in data set [14], in [15] and in data set [16] was more than 500 µM throughout.

As for `O=C(NCc1ccccc1)c1cncc(NCc2ccccc2)n1`, the “log K” value in data set [1] came out at 0.483. Besides, the MIC in data set [2] was 157 µM; in data set [3], more than 100 µg/mL; in data set [11], more than 100 µg/mL; in [12], more than 100 µg/mL.

As to `CCCCNc1nccnc1C(=O)NCc1ccccc1`, in data set [1], the “log K” value amounted to 1.081. The MIC was more than 100 µg/mL in [2]; more than 100 µg/mL in data set [3]; more than 100 µg/mL in data set [11]; more than 100 µg/mL in data set [12]; more than 500 µM in [17]; more than 500 µM in data set [18]. The MIC in data set [19], in data set [20], in data set [21], in data set [22], in [23] and in [24] was more than 500 µM throughout. Further, the CC50 in data set [4] and in data set [8] was more than 100 µM each time. For the same compound, the MCC in data set [5], in data set [6], in data set [7] and in [9] was more than 100 µM in each case. Further, the EC50 in data set [10] and in [25] was more than 100 µM throughout. Besides, the MIC95 in [13], in data set [14], in data set [15] and in data set [16] was more than 500 µM each time.

`O=C(NCc1ccccc1)c1nccnc1NCc1ccccc1`: the “log K” value in data set [1] turned out to be 1.04. Besides, the minimum inhibitory concentration (MIC) in data set [2], in data set [3], in [11] and in data set [12] was more than 100 µg/mL each time. Also, the CC50 in data set [4] and in [8] was more than 100 µM in each case. The MCC in [5] was more than 100 µM; in data set [6], more than 100 µM; in [7], more than 100 µM; in data set [9], 20 µM. In addition, the EC50 in data set [10] and in data set [25] was more than 100 µM each time.

The values above are taken from ChEMBL document CHEMBL3745676, “Alkylamino derivatives of N-benzylpyrazine-2-carboxamide: synthesis and antimycobacterial evaluation” (Medchemcomm, 2015).
